Measured values as given in patent US20260272797A1, “FRAGRANCE COMPOSITION” (GIVAUDAN SA, priority 2023, published 2026).

Legend:
[1] = Gas-phase evaluation of each fragrance ingredient alone against model scalp malodour, MiniVAS device, panel of 5 experts; details: for Scalp MOC of ingredient alone: expert description
Experimental: In a first set of experiments, the scalp malodour counteractancy of 173 fragrance ingredients was evaluated by panel of 5 experts.
The evaluation was performed in the gas phase, using a MiniVAS™ device (ex Givaudan SA). This device is a regulating means that comprises a plurality of channels adapted to convey a gas (more particularly air) through cartridges, each cartridge containing a fragrance ingredient adsorbed onto an adsorbent. The air flows coming from the different cartridges are admixed and conveyed to the user's nose through a tubing fitted with an olfactometer funnel. Thus, by opening and closing channels and maintaining these opened and closed, respectively, for predetermined times, the regulating means can determine which fragrance ingredients and how much thereof are conveyed and when, and thus alter the nature of the fragrance perceived by the user. A description of the device can be found in WO2014154909A1, page 2, line 11 to page 4, line 7, and in H. R. Gygax et al. “Evolution of Real Time Aroma Creation at Givaudan”, poster presented at the 12th Weurman Flavour Research Symposium. July 2008. Interlaken, Switzerland; DOI: 10.13140/2.1.1924.0641.
For the sake of the present evaluation, one cartridge contained the scalp malodour (in the form of a model malodour) and each fragrance ingredient was assigned to another cartridge. The malodour counteractancy of each fragrance ingredient was evaluated separately against the scalp malodour. A constant air flow rate of 50 ml/min was used for all measurements. The perceived malodour intensity, as well as the fragrance intensity, were ranked on a scale of 1-5 (1=barely noticeable, 2=weak, 3=medium, 4=strong and 5=very strong).

[2] = Impact of fragrance ingredients on scalp malodour counteractancy of 80 fragrance compositions (Example 2 protocol, statistical presence); details: series of 80 fragrance compositions
Experimental: In a second set of experiments, the impact of these fragrance ingredients on the scalp malodour counteractancy of a fragrance composition was assessed. The scalp malodour counteractancy of a series of 80 fragrance compositions was assessed by performing the evaluation protocol described in Example 2. […] Ingredients that were statistically more present in fragrances having a high malodour counteractancy were assigned a positive status, whereas ingredients that were statistically more present in compositions having a low malodour counteractancy were assigned a negative status.

[3] = Table 4, air flow 50 ml/min, scale of 1-5
[4] = Table 3, air flow 50 ml/min, scale of 1-5 (1=barely noticeable, 5=very strong)

SMILES | MO intensity [1, 3] | Impact on scalp MOC of fragrance composition ([2]; Table 4) | MO intensity [1, 4] | Impact on scalp MOC of fragrance composition ([2]; Table 3) | Scalp MOC of ingredient alone ([1]; Table 3, gas phase) | Scalp MOC of ingredient alone ([1]; Table 4, gas phase)
C=CCc1ccc(OC(C)=O)c(OC)c1 [4-allyl-2-methoxyphenyl acetate] | 1 | Negative | – | – | – | –
COc1cc(C=O)ccc1OC(=O)C(C)C [4-formyl-2-methoxyphenyl 2-methylpropanoate] | – | – | 1.5 | Positive | – | –
COc1ccc(C=O)cc1 [4-methoxybenzaldehyde] | – | – | 3 | Positive | – | –
CCCCC1CCC(=O)O1 (stereo not shown) [5-butyloxolan-2-one] | 3.8 | Negative | – | – | – | –
CCCCCCC1CCC(=O)O1 (stereo not shown) [5-hexyloxolan-2-one] | – | – | 3 | Positive | – | –
CCCC1(C(C)(C)C)C=CC(C)O1 (stereo not shown) [5-tert-butyl-2-methyl-5-propyl-2H-furan] | – | – | 4 | Positive | – | –
CCCCCCCC1CCCC(=O)O1 (stereo not shown) [6-heptyltetrahydro-2H-pyran-2-one] | – | – | 3 | Positive | – | –
CCC(C)(CCCC(C)C=O)OC (stereo not shown) [6-methoxy-2,6-dimethyloctanal] | – | – | 3 | Positive | – | –
CCCC1CCCC(=O)O1 (stereo not shown) [6-propyltetrahydro-2H-pyran-2-one] | 3.8 | Negative | – | – | – | –
CC(CC=O)CCCC(C)(C)O (stereo not shown) [7-hydroxy-3,7-dimethyloctanal] | – | – | 2 | Positive | – | –
CC(C)CCc1ccc2c(c1)OCC(=O)CO2 [7-isopentyl-2H-benzo[b][1,4]dioxepin-3(4H)-one] | – | – | 4.5 | Positive | – | –
Cc1ccc2c(c1)OCC(=O)CO2 [8-methyl-1,5-benzodioxepin-3-one] | – | – | 3.5 | Positive | – | –
CC1CCC2(CCC(=O)O2)CC1 (stereo not shown) [8-methyl-1-oxaspiro[4.5]decan-2-one] | – | – | 2.7 | Positive | – | –
CC1(C)[C@H]2CC[C@]1(C)C(=O)C2 [(1S,4S)-1,7,7-trimethylbicyclo[2.2.1]heptan-2-one] | – | – | 4.5 | Positive | – | –
CC(=O)O[C@]1(C)CC[C@]23CC1C(C)(C)C2CC[C@@H]3C (stereo partly drawn) [(1S,6R,8aR)-1,4,4,6-tetramethyloctahydro-1H-5,8a-methanoazulen-6-yl acetate] | – | – | 1 | Positive | No effect | –
OCC1COC(Cc2ccccc2)O1 (stereo not shown) [(2-benzyl-1,3-dioxolan-4-yl)methanol] | 1 | Negative | – | – | – | –
CCCCC/C=C\C=C\C(=O)OCC [(2E,4Z)-ethyl deca-2,4-dienoate] | 1 | Negative | – | – | – | –
C/C=C/C(=O)/C(C)=C(\C)C(C)C [(2E,5E)-5,6,7-trimethylocta-2,5-dien-4-one] | – | – | 1.5 | Positive | – | –
CC1=CC[C@H]2C(C1)C1CC2[C@@]2(C1)OC2C (stereo partly drawn) [(2R,8aS)-3′,6-dimethyl-3,4,4a,5,8,8a-hexahydro-1H-spiro[1,4-methanonaphthalene-2,2′-oxirane]] | – | – | 1 | Positive | No effect | –
CC1(C)CCC[C@]2(C)[C@H]3CCO[C@]3(C)CC[C@@H]12 [(3aR,5aS,9aS,9bR)-3a,6,6,9a-tetramethyl-2,4,5,5a,7,8,9,9b-octahydro-1H-benzo[e][1]benzofuran] | – | – | 1 | Positive | No effect | –
CC(=O)O[C@H]1CC2CC1[C@H]1CC=C[C@@H]21 (stereo partly drawn) [(3aR,6S,7aS)-3a,4,5,6,7,7a-hexahydro-1H-4,7-methanoinden-6-yl acetate] | 3.8 | Negative | – | – | – | –
CCC(=O)O[C@H]1CC2CC1[C@H]1CC=C[C@@H]21 (stereo partly drawn) [(3aR,6S,7aS)-3a,4,5,6,7,7a-hexahydro-1H-4,7-methanoinden-6-yl propanoate] | 1.3 | Negative | – | – | – | –

SMILES | MO intensity [1, 3] | Impact on scalp MOC of fragrance composition ([2]; Table 4) | MO intensity [1, 4] | Impact on scalp MOC of fragrance composition ([2]; Table 3) | Scalp MOC of ingredient alone ([1]; Table 3, gas phase) | Scalp MOC of ingredient alone ([1]; Table 4, gas phase)
CC(C)C1CCC(CO)CC1 (stereo not shown) [(4-isopropylcyclohexyl)methanol] | – | – | 3 | Positive | – | –
CC(C)c1ccc(CO)cc1 [(4-isopropylphenyl)methanol] | – | – | 2 | Positive | – | –
C/C(=C\CCC=O)CCCC(C)(C)O [(4E)-9-hydroxy-5,9-dimethyl-4-decenal] | – | – | 1 | Positive | No effect | –
C[C@@H]1CC[C@H]2C(C)(C)[C@H]3C[C@@]12CC1OC(C)(C)OC13C (stereo partly drawn) [(4aR,5R,7aS,9R)-Octahydro-2,2,5,8,8,9a-hexamethyl-4H-4a,9-methanoazuleno[5,6-d]-1,3-dioxole] | – | – | 4 | Positive | – | –
C=C(C)[C@@H]1CC=C(C)C(=O)C1 [(5R)-2-methyl-5-prop-1-en-2-ylcyclohex-2-en-1-one] | 0 | Negative | – | – | – | Enhances MO
C/C=C/c1ccc(OC)c(OC)c1 [(E)-1,2-dimethoxy-4-(prop-1-en-1-yl)benzene] | 3.3 | Negative | – | – | – | –
C/C=C/C(=O)C1=C(C)CCCC1(C)C [(E)-1-(2,6,6-trimethyl-1-cyclohexenyl)but-2-en-1-one] | – | – | 2.8 | Positive | Coverage | –
C/C=C/C(=O)C1C(C)=CCCC1(C)C (stereo not shown) [(E)-1-(2,6,6-trimethylcyclohex-2-en-1-yl)but-2-en-1-one] | – | – | 3.7 | Positive | – | –
C=CCCC(=O)/C=C/C1C(C)=CCCC1(C)C (stereo not shown) [(E)-1-(2,6,6-trimethylcyclohex-2-en-1-yl)hepta-1,6-dien-3-one] | 3 | Negative | – | – | – | Good coverage
CCC(=O)/C=C/C1C(C)=CCCC1(C)C (stereo not shown) [(E)-1-(2,6,6-trimethylcyclohex-2-en-1-yl)pent-1-en-3-one] | – | – | 3 | Positive | – | –
C/C=C/C(=O)C1=C(C)C=CCC1(C)C [(E)-1-(2,6,6-trimethylcyclohexa-1,3-dien-1-yl)but-2-en-1-one] | – | – | 2.8 | Positive | – | –
C/C=C/c1ccc(OC)cc1 [(E)-1-methoxy-4-(prop-1-en-1-yl)benzene] | – | – | 4 | Positive | – | –
C/C(=C\C(C)C)C(C)OC(C)(C)COC(=O)C1CC1 (stereo not shown) [(E)-2-((3,5-dimethylhex-3-en-2-yl)oxy)-2-methylpropyl cyclopropanecarboxylate] | 1 | Negative | – | – | – | –
CCCCCC/C(C=O)=C\c1ccccc1 [(E)-2-benzylideneoctanal] | 1.2 | Negative | – | – | – | –
C/C=C/c1ccc(O)c(OC)c1 [(E)-2-methoxy-4-(prop-1-en-1-yl)phenol] | – | – | 4.5 | Positive | – | –
C=CC(C)(O)CC/C=C(\C)CCC=C(C)C (stereo not shown) [(E)-3,7,11-trimethyldodeca-1,6,10-trien-3-ol] | – | – | 1 | Positive | No effect | –
CC(=O)/C(C)=C/C1=C(C)CCCC1(C)C [(E)-3-methyl-4-(2,6,6-trimethylcyclohex-1-en-1-yl)but-3-en-2-one] | – | – | 3 | Positive | – | –
CC(=O)/C(C)=C/C1C(C)=CCCC1(C)C (stereo not shown) [(E)-3-methyl-4-(2,6,6-trimethylcyclohex-2-en-1-yl)but-3-en-2-one] | – | – | 3 | Positive | – | –
CC1=CCC(/C=C/C(C)C(C)O)C1(C)C (stereo not shown) [(E)-3-methyl-5-(2,2,3-trimethylcyclopent-3-en-1-yl)pent-4-en-2-ol] | – | – | 4.3 | Positive | – | –
CC(=O)/C=C/C1C(C)=CCCC1(C)C (stereo not shown) [(E)-4-(2,6,6-trimethyl-1-cyclohex-2-enyl)but-3-en-2-one] | 4.5 | Negative | – | – | – | –
CC(=O)/C=C/C1=C(C)CCCC1(C)C [(E)-4-(2,6,6-trimethylcyclohex-1-en-1-yl)but-3-en-2-one] | 1 | Negative | – | – | – | –
